Source: paper PMC10094510, “Novel Cannabinoid Receptor 2 (CB2) Low Lipophilicity Agonists Produce Distinct cAMP and Arrestin Signalling Kinetics without Bias” (International Journal of Molecular Sciences, 2023)

Key:
[1] = design: method as in PMID 22444677, PMID 25721168; settings: cited from earlier work
[2] = target: T1, human CB2 (Homo sapiens, UniProt P34972, Q63R); assay: Real-time BRET CAMYEL cAMP biosensor, forskolin-stimulated HEK-293S cells transfected with human CB2; format: cell-based
T1 construct: HA (N); 3TCS (N); expressed in transfected cells; host or cells: HEK-293S cells, transient transfection (PEI max)
T1 sequence (P34972 whole entry Q63R): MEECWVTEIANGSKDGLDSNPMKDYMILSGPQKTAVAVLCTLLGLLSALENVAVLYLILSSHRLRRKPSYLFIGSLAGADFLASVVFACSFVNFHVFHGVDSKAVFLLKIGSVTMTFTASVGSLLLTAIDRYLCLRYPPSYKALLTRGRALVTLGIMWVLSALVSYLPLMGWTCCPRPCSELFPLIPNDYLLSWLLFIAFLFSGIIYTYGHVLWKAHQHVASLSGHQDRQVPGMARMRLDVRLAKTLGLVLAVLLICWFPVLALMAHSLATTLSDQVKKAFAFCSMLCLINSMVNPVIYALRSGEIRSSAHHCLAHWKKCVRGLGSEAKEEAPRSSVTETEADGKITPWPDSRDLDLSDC
Protocol: HEK-293S cells (HEK-S; generously provided by Professor David Poyner, Aston Research Centre, RRID:CVCL_A784 [48]) were maintained in T75 flasks (Corning-Costar) with Dulbecco’s Modified Eagle’s Medium high glucose with phenol red, L-glutamine and sodium pyruvate (DMEM; Cytiva SH30243), and 8% foetal bovine serum (FBS; NZ-origin, Moregate Biotech) at 37 °C in a humidified atmosphere containing 5% CO2.
Poly-D-Lysine (PDL) (Sigma-Aldrich) at 0.05 mg/mL in PBS was incubated in wells of 96-well Solid White Flat Bottom Polystyrene TC-treated Microplate (Corning-Costar) at 37 °C for 1 h, then washed with PBS prior to seeding and transfection. Cells were seeded at 45,000 cells/well in DMEM supplemented with 12% FBS.
Plasmids encoding human CB2 (HA-3TCS-hCB2 63R pcDNA5/FRT; 28.5 ng per well) or no receptor (pcDNA5/FRT/CAT; 23.5 ng per well; Thermo Fisher Scientific, Waltham, MA, USA), and either His-CAMYEL (in pcDNA3L; 24 ng per well; ATCC MBA-277; previously described in [49]), or a mix of Rluc8-hβ-arrestin2-Sp1 (in pcDNA3; 0.5 ng per well; previously described in [19]) and Mem-linker-Citrine-SH3 (in pcDNA3; 20 ng per well; previously described in [19, 50]) were diluted in DMEM. Diluted DNA was then co-incubated with polyethyleneimine max (PEI max; Polysciences, Warrington, PA, USA) (Total DNA:PEI ratio of 1:7.5 or 1:6.7 for cAMP or β-arrestin-2 experiments, respectively) in DMEM for 1 h at room temperature (~19–21 °C). These transfection mixes were then added to plated cells, resulting in a final concentration of 8% FBS. Plates were incubated for ~48 h before assaying.
The protocol for measuring levels of cellular cAMP via real-time BRET biosensor (CAMYEL) is adapted from previous publications. In all cAMP experiments, forskolin (Tocris Bioscience, Bristol, UK) was used to stimulate the activation of adenylyl cyclase to raise intracellular cAMP levels. Vehicle (DMSO) was maintained at an equivalent concentration across all conditions. Assays were carried out in technical duplicate. Then, ~48 h post-transfection, plating media was aspirated, and wells were washed with H+B, consisting of HBSS (Life Technologies) and 1 mg/mL BSA (ICPbio). H+B was then added to the wells to initiate a 30 min serum starve at 37 °C. Post-serum starve, coelenterazine h (final concentration 5 μM, NanoLight Technologies, Norman, OK, USA, #301) was added to the wells, and a 5 min pre-reading was conducted using the LUMIstar® Omega luminometer (Rluc and YFP emissions detected at 460 nm and 535 nm, respectively; BMG Labtech, Ortenberg, Germany). Next, forskolin (final concentration 5 μM) was added to all wells (except vehicle-only wells which received DMSO), and plate reading resumed for 5 min. Lastly, CB2 compounds of interest with forskolin, vehicle with forskolin, or vehicle without forskolin, were added to their respective wells, and a final 20 min read was conducted. All compounds and reagents were diluted in H+B prior to addition to the plate. For β-arrestin-2 recruitment assays, an equivalent procedure was followed except no forskolin was included in the assay stimulations.
BRET ratios were calculated by dividing YFP emissions by Rluc emissions, then for the cAMP assay, normalised to the mean of baseline ratio reads (where only coelenterazine h was present) to eliminate any variability present prior to drug addiction. An increase in BRET ratio indicated a decrease in cAMP levels or increase in β-arrestin-2 recruitment. Lowess smoothing (GraphPad Prism) was applied to individual technical replicates within an assay. Concentration response curves for the mean of technical replicates (CRC; “log(agonist) vs. response (three parameters)” nonlinear regression curve model, Hill slope constrained to 1) were drawn for the mean ratios over 20 min stimulation or individual time-points.

[3] = system: CB2; design: method as in PMID 22444677; settings: error not shown; cited from earlier work
[4] = system: atopic dermatitis; design: method as in PMID 22444677, PMID 25721168; settings: informally reported; cited from earlier work
[5] = target: CB2; design: method as in PMID 22444677; settings: error not shown; cited from earlier work; remark: listed apart in the source
[6] = system: rodents; design: method as in PMID 22444677, PMID 25721168; settings: cited from earlier work
[7] = target: T1, human CB2; assay: Competition radioligand binding assay ([3H]-CP55,940), hCB2 membranes
Protocol: The concentration of DMSO was kept equivalent across all test conditions. All dilutions were dispensed into a 96-well, polypropylene V-bottom plate (Gene Era Biotech, Hangzhou, China). […] All conditions were carried out in technical duplicate. The plate was then sealed, tap-mixed, then incubated at 30 °C for 1 h. A total of 50 µL of 0.1% PEI (Sigma-Aldrich, St. Louis, MI, USA) in MQ water was added to each well of a 96-well GF/C harvest plate (Perkin Elmer) 1 h prior to the harvest. When the incubation finished, vacuum (~5 mmHg) was applied to the harvest plate and wells were washed (50 mM HEPES pH 7.4, 500 mM NaCl, 1 mg/mL BSA, MQ water, ice cold). Subsequently, the contents of the V-bottom plate were transferred to corresponding wells in the harvest plate, wash buffer was used to wash the remaining contents of the V-bottom wells before transferring this to the harvest plate, then the harvest plate was washed an additional three times. The plate was dried for ~24 h at 24 °C. To prepare for reading, the bottom of the plate was sealed, each well received 50 µL of Irgasafe Plus scintillation fluid (Perkin Elmer), followed by sealing the top of the plate. Plates were read in a Wallac MicroBeta® TriLux Liquid Scintillation Counter (Perkin Elmer) with a read time of 2 min/well.
GraphPad Prism (v8.0.2; GraphPad Software, San Diego, CA, USA) was used to fit nonlinear regression curves (One site—Fit Ki) to the corrected counts per minutes (CCPM) of each displacer to determine their pKi (negative log Ki). […] Mean and SEM of pKi values were calculated from independent experiments. […] CB2 selectivity was calculated as […].

For `CCc1c(C)cc(C(=O)NC2(C(=O)O)CCCCC2)c(=O)n1Cc1ccc(F)cc1` [UOSS77, reference compound], the oral bioavailability [1] is listed as “orally bioavailable”, the “2.5 min EC75 concentration (log[compound] M)” value ([2]; cAMP assay, calculated from mean EC50 at 2.5 min, Figure S1) is listed as -7.6 log M and the “time of peak cAMP response (maximal efficacy)” value ([2]; during 20 min stimulation, 5 μM forskolin) is listed as 2.5 min. For the same compound, the EC50 ([2]; mean over 20 min stimulation, 5 μM forskolin, mean ± SEM, read-out: cAMP pEC50 (converted)) was 12.6 nM, the “cAMP ΔEmax (absolute magnitude percentage decrease from 100%)” value ([2]; mean over 20 min stimulation, 5 μM forskolin, normalised to V 0% and F 100%) was 33.8 ± 5.5% and the “agonism pEC50 (cAMP)” value [3] was 7.6. The “efficacy in Phase 2 clinical trial for atopic dermatitis” value [4] was “ineffective”, the “CB2 pKi” value [5] was 7.4 and the “anti-pruritic activity in rodents” value [6] was “shown promise as an anti-pruritic agent”. The Ki ([7]; 0.75 nM [3H]-CP55,940, mean (SEM), read-out: CB2 pKi (±SEM) (converted)) was 186 nM, the “CB2/CB1 Selectivity” value ([7]; CB2 selectivity relative to CB1, from Ki (or Kd)) was ~80 and the “displacement of [3H]-CP55,940 from CB2” value ([7]; full displacement = ≥ 75% relative to 1 µM CP55,940) was “fully displaced”.
